The text below walks through data of patent US8546575B2, “NIP thiazole derivatives as inhibitors of 11-beta-hydroxysteroid dehydroge-nase-1” (Merck Patent GmbH, priority 2008, dated 2013).

Assay [1] has as its target T1, human 11-β-HSD-1 (Homo sapiens, UniProt P28845).
T1 construct: made in house; host or cells: E. coli
Put plainly: Inhibition of 11-β-HSD-1 enzyme assay (HTRF Cortisol), human recombinant enzyme. It counts as biochemical. To be noted: for IC50: human recombinant enzyme from E. coli, cortisone/NADPH 200 nM/200 μM. On the procedure: (§1) Human recombinant 11-beta-hydroxysteroid dehydrogenase type 1 (11-β-HSD-1) enzyme was expressed in E. coli. Rat and mice liver microsome fractions were purchased from TEBU.
(§2) The 11-β-HSD-1 enzyme assay was carried out in 96 well microtiter plates in a total volume of 100 μl containing 30 mM Hepes buffer, pH 7.4 with 1 mM EDTA, substrate mixture cortisone/NADPH (200 nM/200 μM), G-6-P (1 mM) and inhibitors in serial dilutions. Reactions were initiated by addition of 10 μl 11-β-HSD-1 (3 μg) from E. coli, either as microsome fractions from rat and mice liver (2.5 μg). Following mixing, the plates were shaken for 150 minutes at 37° C. The reactions were terminated with 10 μl Acid-18beta Glycyrrhetinic stop solution. Determinations of Cortisol levels in 11-β-HSD-1 preparations were monitored by HTRF (HTRF Cortisol assay from Cis bio international).
(§3) Activity is expressed in % of control or concentration to inhibit 50% of the enzyme activity (IC50) (table 6).

Assay [2] concerns the target T2, mouse 11-β-HSD-1 (Mus musculus, UniProt P50172).
T2 construct: either as microsome fractions from rat and mice liver (2.5 μg); tissue TEBU; host or cells: mouse liver microsome fractions
Kind of assay: Inhibition of 11-β-HSD-1 enzyme assay (HTRF Cortisol), mice liver microsome fractions. Format: biochemical. As to conditions: for remaining activity at 1 µM: read-out: Inhibition of mouse 11-β-HSD-1 % of control at 1 μM. On the procedure: as §1, §2, §3

Assay [3] relates to humans. To be noted: cited from earlier work.
Assay [4] concerns normal patients. As to conditions: cited from earlier work.

T2 sequence (P50172 whole entry): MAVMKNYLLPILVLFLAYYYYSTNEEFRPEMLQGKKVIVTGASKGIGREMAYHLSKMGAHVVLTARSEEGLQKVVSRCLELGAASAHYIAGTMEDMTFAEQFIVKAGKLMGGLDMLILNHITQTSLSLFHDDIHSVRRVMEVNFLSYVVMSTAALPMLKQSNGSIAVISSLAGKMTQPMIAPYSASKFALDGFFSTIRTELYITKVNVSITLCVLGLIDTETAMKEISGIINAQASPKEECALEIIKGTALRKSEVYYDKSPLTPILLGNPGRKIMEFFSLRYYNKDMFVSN
T1 sequence (P28845 whole entry): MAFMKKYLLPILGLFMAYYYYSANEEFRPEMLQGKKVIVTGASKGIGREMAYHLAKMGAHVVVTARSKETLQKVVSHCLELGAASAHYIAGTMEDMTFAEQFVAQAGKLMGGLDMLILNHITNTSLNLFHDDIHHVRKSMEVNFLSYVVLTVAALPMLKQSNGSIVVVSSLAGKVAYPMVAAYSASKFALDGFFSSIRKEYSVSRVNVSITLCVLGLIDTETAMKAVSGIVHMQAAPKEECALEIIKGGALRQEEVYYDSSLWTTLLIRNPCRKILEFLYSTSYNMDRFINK

As a reminder, the IC50 is the concentration needed to halve the response being measured. With `O=C(c1csc(C2CCNCC2)n1)N(C1CCCCC1)C1CC1` [Compound 1.1, 2-Piperidin-4-yl-thiazole-4-carboxylic acid cyclohexyl-cyclopropyl-amide], the 50% inhibitory concentration (IC50) is 1.2 µM in assay [1] and 0.29 µM in assay [2].

On to `O=C(c1csc(C2CCNCC2)n1)N1CCCC2CCCCC21` (stereo not shown) [Compound 1.2, (Octahydro-quinolin-1-yl)-(2-piperidin-4-yl-thiazol-4-yl)-methanone], for which the remaining activity at 1 µM in assay [1] (at 1 μM, human recombinant enzyme, read-out: Inhibition of human 11-β-HSD-1 % of control at 1 μM) amounted to 27%.

With `CC(C)(C)CC(=O)N1CCC(c2nc(C(=O)N3CCCC4CCCCC43)cs2)CC1` (stereo not shown) [Compound 2.1, 3,3-Dimethyl-1-{4-[4-(octahydro-quinoline-1-carbonyl)-thiazol-2-yl]-piperidin-1-yl}-butan-1-one], in assay [1], the IC50 is 0.092 µM. The remaining activity at 1 µM in assay [2] was 51%.

Turning to `O=C(CCC1CCCC1)N1CCC(c2nc(C(=O)N(C3CCCCC3)C3CC3)cs2)CC1` [Compound 2.7, 2-[1-(3-Cyclopentyl-propionyl)-piperidin-4-yl]-thiazole-4-carboxylic acid cyclohexyl-cyclopropyl-amide], the half-maximal inhibitory concentration (IC50) in assay [1] stood at 0.42 µM; in assay [2], 0.63 µM.

As for `O=C(C1CCCCC1)N1CCC(c2nc(C(=O)N3CCCC4CCCCC43)cs2)CC1` (stereo not shown) [Compound 2.17, [2-(1-Cyclohexanecarbonyl-piperidin-4-yl)-thiazol-4-yl]-(octahydro-quinolin-1-yl)-methanone], the concentration for half-maximal inhibition (IC50) in assay [1] was found to be 0.2 µM; in assay [2], 0.34 µM.

Turning to `O=C(C1CCCC1)N1CCC(c2nc(C(=O)N3CCCC4CCCCC43)cs2)CC1` (stereo not shown) [Compound 2.18, [2-(1-Cyclopentanecarbonyl-piperidin-4-yl)-thiazol-4-yl]-(octahydro-quinolin-1-yl)-methanone], the half-inhibitory concentration (IC50) in assay [1] was 0.13 µM; in assay [2] it was 0.49 µM.

Turning to `CCC(C)NC(=O)N1CCC(c2nc(C(=O)N3CCCC4CCCCC43)cs2)CC1` (stereo not shown) [Compound 3.1, 4-[4-(Octahydro-quinoline-1-carbonyl)-thiazol-2-yl]-piperidine-1-carboxylic acid sec-butylamide], the IC50 stood at 0.27 µM in assay [1] and 0.47 µM in assay [2].

With `CCCCCNC(=O)N1CCC(c2nc(C(=O)N3CCCC4CCCCC43)cs2)CC1` (stereo not shown) [Compound 3.7, 4-[4-(Octahydro-quinoline-1-carbonyl)-thiazol-2-yl]-piperidine-1-carboxylic acid pentylamide], the IC50 is 0.34 µM in assay [1] and 0.059 µM in assay [2].

For `COc1ccc(CNC(=O)N2CCC(c3nc(C(=O)N4CCCC5CCCCC54)cs3)CC2)cc1` (stereo not shown) [Compound 3.22, 4-[4-(Octahydro-quinoline-1-carbonyl)-thiazol-2-yl]-piperidine-1-carboxylic acid 4-methoxy-benzylamide], the half-inhibitory concentration (IC50) worked out at 0.053 µM in assay [1] and 0.5 µM in assay [2].

As to `O=C(c1csc(C2CCN(S(=O)(=O)C(F)(F)F)CC2)n1)N1CCCC2CCCCC21` (stereo not shown) [Compound 4.1, (Octahydro-quinolin-1-yl)-[2-(1-trifluoromethanesulfonyl-piperidin-4-yl)-thiazol-4-yl]-methanone], the concentration for half-maximal inhibition (IC50) in assay [1] stood at 0.032 µM; in assay [2] it was 0.33 µM.

Turning to `CCCCS(=O)(=O)N1CCC(c2nc(C(=O)N3CCCC4CCCCC43)cs2)CC1` (stereo not shown) [Compound 4.2, {2-[1-(Butane-1-sulfonyl)-piperidin-4-yl]-thiazol-4-yl}-(octahydro-quinolin-1-yl)-methanone], the values for the IC50 in assay [1] and in assay [2] were 0.093 µM and 0.21 µM, respectively.

Take `O=C(c1csc(C2CCN(S(=O)(=O)c3cccs3)CC2)n1)N(C1CCCCC1)C1CC1` [Compound 4.11, 2-[1-(Thiophene-2-sulfonyl)-piperidin-4-yl]-thiazole-4-carboxylic acid cyclohexyl-cyclopropyl-amide]: in assay [1], the concentration for half-maximal inhibition (IC50) amounted to 0.72 µM.

On to `O=C(c1csc(C2CCN(S(=O)(=O)CCc3ccncc3)CC2)n1)N(C1CCCCC1)C1CC1` [Compound 4.18, 2-[1-(2-Pyridin-4-yl-ethanesulfonyl)-piperidin-4-yl]-thiazole-4-carboxylic acid cyclohexyl-cyclopropyl-amide], for which the half-inhibitory concentration (IC50) in assay [1] worked out at 1 µM. Further, the remaining activity at 1 µM in assay [2] was 49%.

With `COc1ccc(S(=O)(=O)N2CCC(c3nc(C(=O)N(C4CCCCC4)C4CC4)cs3)CC2)cc1` [Compound 4.20, 2-[1-(4-Methoxy-benzenesulfonyl)-piperidin-4-yl]-thiazole-4-carboxylic acid cyclohexyl-cyclopropyl-amide], the figures for the concentration for half-maximal inhibition (IC50) in assay [1] and in assay [2] were 0.28 µM and 1 µM, respectively.

As for `CC1(C)[C@@H](OC(=O)CCC(=O)O)CC[C@]2(C)[C@H]3C(=O)C=C4[C@@H]5C[C@@](C)(C(=O)O)CC[C@]5(C)CC[C@@]4(C)[C@]3(C)CC[C@@H]12` [carbenoxolone], the hepatic insulin sensitivity entry in assay [3] is recorded as “improved hepatic insulin sensitivity”. Further, the “reduction of the intraocular pressure” value in assay [4] is given as 20%.
